ChEMBL document CHEMBL1201862, “PubChem BioAssay data set” (2004)
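Exposure lasted 48 hours, with cells grown in 96-well plates and compounds tested at five concentrations. The concentration for 50% growth inhibition is given as GI50.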 The source made the active and inactive calls. No stated cut-off is given here; in the data, active = GI50 up to about 1.1 µM and inactive = higher.

Assays:
Test in all cases: DTP human tumour cell line panel, 48 h
786-0 = test system: 786-0
A498 = test system: A498
A549 = test system: A549
ACHN = test system: ACHN
CAKI-1 = test system: CAKI-1
CCRF-CEM = test system: CCRF-CEM
COLO 205 = test system: COLO 205
DLD-1 = test system: DLD-1
DMS-114 = test system: DMS-114
DMS-273 = test system: DMS-273
EKVX = test system: EKVX
HCT-116 = test system: HCT-116
HCT-15 = test system: HCT-15
HL-60 = test system: HL-60
HOP-18 = test system: HOP-18
HOP-62 = test system: HOP-62
HT-29 = test system: HT-29
IGROV-1 = test system: IGROV-1
K562 = test system: K562
KM-20L2 = test system: KM-20L2
KM12 = test system: KM12
LOX IMVI = test system: LOX IMVI
LXFL 529 = test system: LXFL 529
M14 = test system: M14
MOLT-4 = test system: MOLT-4
Malme-3M = test system: Malme-3M
NCI-H226 = test system: NCI-H226
NCI-H23 = test system: NCI-H23
NCI-H460 = test system: NCI-H460
NCI-H522 = test system: NCI-H522
OVCAR-3 = test system: OVCAR-3
OVCAR-4 = test system: OVCAR-4
OVCAR-5 = test system: OVCAR-5
OVCAR-8 = test system: OVCAR-8
RPMI-8226 = test system: RPMI-8226
RXF 393 = test system: RXF 393
RXF 631 = test system: RXF 631
SF-268 = test system: SF-268
SF-295 = test system: SF-295
SF-539 = test system: SF-539
SK-MEL-28 = test system: SK-MEL-28
SK-MEL-2 = test system: SK-MEL-2
SK-MEL-5 = test system: SK-MEL-5
SK-OV-3 = test system: SK-OV-3
SN12C = test system: SN12C
SNB-19 = test system: SNB-19
SNB-75 = test system: SNB-75
SNB-78 = test system: SNB-78
SR = test system: SR
SW-620 = test system: SW-620
TK-10 = test system: TK-10
U-251 = test system: U-251
UACC-257 = test system: UACC-257
UACC-62 = test system: UACC-62
XF498 = test system: XF498
HCC 2998 = test system: HCC 2998
HOP-92 = test system: HOP-92
M19-MEL = test system: M19-MEL
UO-31 = test system: UO-31

## O=C(CC1(O)C(=O)Nc2c(Cl)cc(Cl)cc21)c1cccc2ccccc12 (centres undefined)
786-0
  GI50: 15.8 µM (inactive)
A498
  GI50: 21.5 µM (inactive)
A549
  GI50: 15.1 µM (inactive)
ACHN
  GI50: 17.1 µM (inactive)
CAKI-1
  GI50: 11.8 µM (inactive)
CCRF-CEM
  GI50: 17.8 µM (inactive)
COLO 205
  GI50: 17 µM (inactive)
DLD-1
  GI50: 15.8 µM (inactive)
DMS-114
  GI50: 17.9 µM (inactive)
DMS-273
  GI50: 13.7 µM (inactive)
EKVX
  GI50: 16 µM (inactive)
HCT-116
  GI50: 15.2 µM (inactive)
HCT-15
  GI50: 16.5 µM
HL-60
  GI50: 10.5 µM (inactive)
HOP-18
  GI50: 17.9 µM (inactive)
HOP-62
  GI50: 16.5 µM (inactive)
HT-29
  GI50: 19.6 µM (inactive)
IGROV-1
  GI50: 18.6 µM (inactive)
K562
  GI50: 16.6 µM (inactive)
KM-20L2
  GI50: 18.9 µM (inactive)
KM12
  GI50: 16 µM (inactive)
LOX IMVI
  GI50: 17.7 µM (inactive)
LXFL 529
  GI50: 15.3 µM (inactive)
M14
  GI50: 16.7 µM (inactive)
MOLT-4
  GI50: 20 µM (inactive)
Malme-3M
  GI50: 19.5 µM (inactive)
NCI-H226
  GI50: 16.5 µM (inactive)
NCI-H23
  GI50: 16.9 µM (inactive)
NCI-H460
  GI50: 16.6 µM (inactive)
NCI-H522
  GI50: 14.3 µM (inactive)
OVCAR-3
  GI50: 16.1 µM (inactive)
OVCAR-4
  GI50: 12.4 µM (inactive)
OVCAR-5
  GI50: 22.4 µM (inactive)
OVCAR-8
  GI50: 18.1 µM (inactive)
RPMI-8226
  GI50: 19.6 µM (inactive)
RXF 393
  GI50: 20.6 µM (inactive)
RXF 631
  GI50: 18.1 µM (inactive)
SF-268
  GI50: 21.4 µM (inactive)
SF-295
  GI50: 15.7 µM (inactive)
SF-539
  GI50: 17.1 µM (inactive)
SK-MEL-28
  GI50: 18.7 µM (inactive)
SK-MEL-2
  GI50: 17.7 µM (inactive)
SK-MEL-5
  GI50: 15.2 µM (inactive)
SK-OV-3
  GI50: 16.6 µM (inactive)
SN12C
  GI50: 18.4 µM (inactive)
SNB-19
  GI50: 14.1 µM (inactive)
SNB-75
  GI50: 18.2 µM (inactive)
SNB-78
  GI50: 26.7 µM (inactive)
SR
  GI50: 16.9 µM (inactive)
SW-620
  GI50: 16 µM (inactive)
TK-10
  GI50: 14.1 µM (inactive)
U-251
  GI50: 15.5 µM (inactive)
UACC-257
  GI50: 15.8 µM (inactive)
UACC-62
  GI50: 14.9 µM (inactive)
XF498
  GI50: 20.4 µM (inactive)

## CC1=C(C(=O)CC(=O)C(=O)Nc2cc(C)ccc2C)Sc2ccccc2N1
786-0
  GI50: > 100 µM (inactive)
A549
  GI50: > 100 µM (inactive)
ACHN
  GI50: > 100 µM (inactive)
CAKI-1
  GI50: > 100 µM (inactive)
CCRF-CEM
  GI50: 80.9 µM (inactive)
DLD-1
  GI50: 92.3 µM (inactive)
DMS-114
  GI50: > 100 µM (inactive)
EKVX
  GI50: > 100 µM (inactive)
HCC 2998
  GI50: > 100 µM (inactive)
HCT-116
  GI50: > 100 µM (inactive)
HCT-15
  GI50: > 100 µM
HL-60
  GI50: > 100 µM (inactive)
HOP-18
  GI50: > 100 µM (inactive)
HOP-62
  GI50: > 100 µM (inactive)
HOP-92
  GI50: 85.7 µM (inactive)
HT-29
  GI50: > 100 µM (inactive)
IGROV-1
  GI50: > 100 µM (inactive)
K562
  GI50: > 100 µM (inactive)
KM12
  GI50: > 100 µM (inactive)
LOX IMVI
  GI50: > 100 µM (inactive)
LXFL 529
  GI50: > 100 µM (inactive)
M14
  GI50: > 100 µM (inactive)
M19-MEL
  GI50: > 100 µM (inactive)
MOLT-4
  GI50: 66.7 µM (inactive)
Malme-3M
  GI50: > 100 µM (inactive)
NCI-H226
  GI50: > 100 µM (inactive)
NCI-H23
  GI50: > 100 µM (inactive)
NCI-H460
  GI50: > 10 µM (inactive)
NCI-H522
  GI50: > 100 µM (inactive)
OVCAR-3
  GI50: > 100 µM (inactive)
OVCAR-4
  GI50: > 100 µM (inactive)
OVCAR-5
  GI50: > 100 µM (inactive)
OVCAR-8
  GI50: 66.8 µM (inactive)
RPMI-8226
  GI50: > 100 µM (inactive)
RXF 393
  GI50: > 100 µM (inactive)
RXF 631
  GI50: > 100 µM (inactive)
SF-268
  GI50: > 100 µM (inactive)
SF-295
  GI50: 32 µM (inactive)
SF-539
  GI50: > 100 µM (inactive)
SK-MEL-28
  GI50: > 100 µM (inactive)
SK-MEL-2
  GI50: > 100 µM (inactive)
SK-MEL-5
  GI50: > 100 µM (inactive)
SK-OV-3
  GI50: > 100 µM (inactive)
SN12C
  GI50: > 100 µM (inactive)
SNB-19
  GI50: > 100 µM (inactive)
SNB-78
  GI50: > 100 µM (inactive)
SW-620
  GI50: > 100 µM (inactive)
TK-10
  GI50: > 100 µM (inactive)
U-251
  GI50: > 100 µM (inactive)
UACC-257
  GI50: > 100 µM (inactive)
UACC-62
  GI50: > 100 µM (inactive)
UO-31
  GI50: > 100 µM (inactive)
XF498
  GI50: > 100 µM (inactive)

## O=c1/c(=C/c2c(O)ccc3ccccc23)sc2nc3ccccc3n12
786-0
  GI50: > 100 µM (inactive)
A498
  GI50: > 100 µM (inactive)
A549
  GI50: > 100 µM (inactive)
ACHN
  GI50: > 100 µM (inactive)
CAKI-1
  GI50: > 100 µM (inactive)
CCRF-CEM
  GI50: > 100 µM (inactive)
COLO 205
  GI50: > 100 µM (inactive)
DLD-1
  GI50: > 100 µM (inactive)
DMS-114
  GI50: > 100 µM (inactive)
DMS-273
  GI50: > 100 µM (inactive)
EKVX
  GI50: > 100 µM (inactive)
HCC 2998
  GI50: > 100 µM (inactive)
HCT-116
  GI50: > 100 µM (inactive)
HCT-15
  GI50: > 100 µM
HL-60
  GI50: > 100 µM (inactive)
HOP-18
  GI50: > 100 µM (inactive)
HOP-62
  GI50: > 100 µM (inactive)
HOP-92
  GI50: > 100 µM (inactive)
HT-29
  GI50: > 100 µM (inactive)
IGROV-1
  GI50: > 100 µM (inactive)
K562
  GI50: > 100 µM (inactive)
KM-20L2
  GI50: > 100 µM (inactive)
KM12
  GI50: > 100 µM (inactive)
LOX IMVI
  GI50: > 100 µM (inactive)
LXFL 529
  GI50: > 100 µM (inactive)
M14
  GI50: > 100 µM (inactive)
M19-MEL
  GI50: > 100 µM (inactive)
Malme-3M
  GI50: > 100 µM (inactive)
NCI-H226
  GI50: > 100 µM (inactive)
NCI-H23
  GI50: > 100 µM (inactive)
NCI-H460
  GI50: > 100 µM (inactive)
NCI-H522
  GI50: > 100 µM (inactive)
OVCAR-3
  GI50: > 100 µM (inactive)
OVCAR-4
  GI50: > 100 µM (inactive)
OVCAR-5
  GI50: > 100 µM (inactive)
OVCAR-8
  GI50: > 100 µM (inactive)
RXF 393
  GI50: > 100 µM (inactive)
RXF 631
  GI50: > 100 µM (inactive)
SF-268
  GI50: > 100 µM (inactive)
SF-295
  GI50: > 100 µM (inactive)
SF-539
  GI50: > 100 µM (inactive)
SK-MEL-28
  GI50: > 100 µM (inactive)
SK-MEL-2
  GI50: > 100 µM (inactive)
SK-MEL-5
  GI50: > 100 µM (inactive)
SK-OV-3
  GI50: > 100 µM (inactive)
SN12C
  GI50: > 100 µM (inactive)
SNB-19
  GI50: > 100 µM (inactive)
SNB-75
  GI50: > 100 µM (inactive)
SNB-78
  GI50: > 100 µM (inactive)
SW-620
  GI50: > 100 µM (inactive)
TK-10
  GI50: > 100 µM (inactive)
U-251
  GI50: > 100 µM (inactive)
UACC-257
  GI50: > 100 µM (inactive)
UACC-62
  GI50: > 100 µM (inactive)
UO-31
  GI50: > 100 µM (inactive)
XF498
  GI50: > 100 µM (inactive)
